The source of these data is PMC9569971, “New Oxazolo[5,4-d]pyrimidines as Potential Anticancer Agents: Their Design, Synthesis, and In Vitro Biological Activity Research” (International Journal of Molecular Sciences, 2022).

“Also recorded” adds a separate entry of the source. Like-named read-outs stand apart in the source and are kept apart here. Bounds are passed on as bounds.

One data set deals with A549. The settings on record: cited from earlier work.
The test system of a further data set is MCF7. The settings on record: cited from earlier work.
The next data set deals with HT29. The settings on record: cited from earlier work.
The nature of data set [1]: MTT viability assay, L929. The class given is cell-based, murine. The settings on record: mouse, L929 fibroblasts, tested 1–500 µM. As to the method: (§1) When the confluence was greater than 70%, adherent cell lines were detached from the bottle surface with a TrypLE solution and then used in assays or reduced. The cells were collected into centrifuge tubes and centrifuged at 1000× g for 5 min at room temperature. The supernatant was removed to dry. The cell pellets were then resuspended in an appropriate medium. The cells were counted using a Bürker chamber and resuspended in 96-well plates to a cell density of 10,000 cells per well for MTT assay. For the rhodamine accumulation test and the detection of apoptosis assay, cells were seeded at a density of 30,000 per well. In the migration assay, cells were seeded at a density of 20,000 per well, and monolayer formation was awaited.
(§2) In this study, normal human dermal fibroblasts (NHDFs), breast cancer cells (MCF7), human lung adenocarcinoma cells (A549), murine fibroblasts (L929), colon adenocarcinoma cells (HT29), and colorectal adenocarcinoma cells (LoVo) were used. All cell lines were cultured in the recommended media. […] The human lung adenocarcinoma cell line A549 and breast cancer cell line MCF-7 were obtained from the ECACC. These cell lines were cultured in Eagle’s minimal essential medium (MEM). Murine fibroblast L929 (Sigma-Aldrich, Merck Group, Headquarters, Darmstadt, Germany; the European Collection of Authenticated Cell Cultures—ECACC) cells were grown in DMEM. […] All media were supplemented with 10% FBS and 100 µg/mL of penicillin–streptomycin.
(§3) All compounds were dissolved in DMSO and the reference drugs were dissolved in physiological saline to concentrations of 10 mM. Concentrations from 1 to 500 μM in the media recommended for the cell lines were prepared for the tests.
(§4) All of the synthesized derivatives were evaluated via the MTT assay. All cell lines were seeded into 96-well plates at a density of 10,000 cells per well. To allow the cells to adhere to the surface of the plates, they were incubated overnight before the application of the test compounds. […] The tests were performed for concentrations of 1, 5, 10, 25, 50, 100, 250, and 500 μM. The solutions of the test compounds were removed from the culture on the 96-well plates. […] The supernatant was then removed. The violet crystal was dissolved in isopropanol for 30 min by shaking. Absorbance was measured at 570 nm.
(§5) Biological assays were performed in three independent replicates, and each replicate used four samples. Three repetitions were made for the ELISA determinations. For the assessment of cytotoxicity, mathematical models were developed using the GraphPad PRISM software, based on which CC50 was determined. The values of CC50 were estimated based on nonlinear regression using the dependence of the biological effect on the molar concentrations of the compounds (four-parameter logistic model with Hill slope).
Background: Formazan colour is commonly taken as a measure of viable cells.

Data set [2] has as its system normal human dermal fibroblasts (NHDF). The experiment in a line: MTT viability assay, NHDF. The class given is cell-based. The settings on record: tested 1–500 µM. As to the method:
as §1, §2, §3, §4, §5

Data set [3] relates to lung adenocarcinoma (A549). The experiment in a line: MTT viability assay, A549. It counts as cell-based, human. As to the method:
as §1, §2, §3, §4, §5

Data set [4] relates to breast adenocarcinoma (MCF7). Put plainly: MTT viability assay, MCF7. The class given is cell-based, human. The settings on record: for SI (selectivity index): CC50 NHDF / CC50 MCF7; for CC50: Homo sapiens. As to the method: as §1, §2, §3, §4, §5
Data set [5] has as its system primary colon adenocarcinoma (HT29). Put plainly: MTT viability assay, HT29. The settings on record: for SI (selectivity index): CC50 NHDF / CC50 HT29; for CC50: Homo sapiens, HT-29, HT29, MTT; for CC50 / CC50 ± SD: tested 1–500 µM; for CC50 ± SD: HT29, MTT. It counts as cell-based, human. As to the method:
as §1, §2, §3, §4, §5

Data set [6] relates to murine fibroblasts (L929). The experiment in a line: MTT viability assay, L929. The class given is cell-based. The settings on record: tested 1–500 µM. As to the method: as §1, §2, §3, §4, §5
A short description of data set [7]: MTT viability assay, NHDF. The class given is cell-based, human. The settings on record: human, normal human dermal fibroblasts (NHDF), tested 1–500 µM. As to the method:
as §1, §2, §3, §4, §5

Data set [8] deals with metastatic colon adenocarcinoma (LoVo). The experiment in a line: MTT viability assay, LoVo. It counts as cell-based, human. As to the method: as §1, §2, §3, §4, §5
The test system of data set [9] is HT29 primary colon adenocarcinoma cells. Put plainly: Detection of apoptosis (Annexin V FITC / propidium iodide). It counts as cell-based, human. Further details: unit not given here. The settings on record: 24 h. As to the method:
as §1, with “All cell lines were grown in 5% CO2 at 95% humidity and 37 °C, with both morphology and confluence assessed twice per week. When” for “When”
HT29 primary colon adenocarcinoma cells were grown in 96-well plates for 24 h. The 5 selected derivatives were added at concentrations of 1, 2, 5, and 10 µM, and then incubated for 24 h. The mixture of Annexin V conjugated with fluorescein and propidium iodide in PBS with Mg^2+ and Ca^2+ ions (Thermo Fisher Scientific, Waltham, MA, USA) was then applied. The incubation lasted 20 min at 37 °C. Pictures were taken using a fluorescence microscope. Thirteen images were taken from each well using an EVOS FL fluorescence microscope, with three replications for each compound. The open ImageJ space was used to analyze the number of cells. The Thermo Fisher Dead Cell Apoptosis Kit with Annexin V FITC and Propidium Iodide (PI) detects phosphatidylserine extrusion in apoptotic cells using Annexin V conjugated with a green fluorescent FITC dye and dead cells stained by PI with red fluorescence.

For the next data set, the system named is LoVo. The settings on record: cited from earlier work.
Another data set deals with HT29 cells. On the set-up: method as in PMID 27002410. The settings on record: cited from earlier work.

The term IC50 denotes the concentration needed to halve the response being measured. `COc1cc2nccc(Oc3ccc(NC(=O)C4(C(=O)Nc5ccc(F)cc5)CC4)cc3)c2cc1OC` [Cabozantinib]: the concentration for half-maximal inhibition (IC50) in the data set on A549 (ref 67, read-out: IC50 (converted)) was 9.52 ± 0.91 µM; in the data set on A549 (ref 68, read-out: IC50 (converted)), 15.2 µM; with MCF7 it was 14.3 ± 0.87 µM; in the data set on HT29 (ref 67), 11.5 ± 1.1 µM.
For orientation: CC50 means the concentration that lowers cell viability or growth by half. By melting point is commonly meant the temperature of the solid-liquid transition. On to `CCNc1ncnc2oc(-c3c(C)noc3N)nc12` [Compound 3b, 2-(5-Amino-3-methylisoxazol-4-yl)-7-N-ethylaminooxazolo[5,4-d]pyrimidine], for which the melting point is 253 to 254 °C (dec.). The same compound had a CC50 in data set [1] of 235 ± 11.5 µM. Further, the “CC50 ± SD” value in data set [2] is reported as “Non-toxic”. Besides, in data set [3] (A549, MTT, tested 1–500 µM), the “CC50 ± SD” value was “no activity”. Moreover, the “SI (selectivity index)” value in data set [4] is >>1. This compound returned a CC50 in [4] (MCF7, MTT, tested 1–500 µM) of 193 ± 16.9 µM. Besides, in data set [5], the “SI (selectivity index)” value was >>1 and the CC50 stood at 194 ± 15.4 µM.
For the compound `CCCCNc1ncnc2oc(-c3c(C)noc3N)nc12` [Compound 3d, 2-(5-Amino-3-methylisoxazol-4-yl)-7-N-butylaminooxazolo[5,4-d]pyrimidine], the melting point was 239 to 240 °C (dec.). Further, in [6], the “CC50 ± SD” value is “no toxic activity; also recorded: Non-toxic”. In data set [7], the midpoint of cytotoxicity, the CC50, lay at 126 ± 9.87 µM. Also, the “SI (selectivity index)” value in data set [3] (CC50 NHDF / CC50 A549) came out at 0.705. In [3] (Homo sapiens, A549, MTT, tested 1–500 µM), this compound registered a cytotoxic concentration (CC50) of 179 ± 14.9 µM. Moreover, the “SI (selectivity index)” value in data set [4] was found to be 0.944. The same compound registered a CC50 in data set [4] (MCF7, MTT, tested 1–500 µM) of 134 ± 14 µM. Also, in data set [8] (CC50 NHDF / CC50 LoVo), the “SI (selectivity index)” value is on record as 0.558. Moreover, the CC50 in data set [8] (Homo sapiens, LoVo, MTT, tested 1–500 µM) came to 226 ± 8.28 µM. Further, in data set [5], the “SI (selectivity index)” value was found to be 0.820 and it took 154 ± 13.4 µM to reach half-maximal cytotoxicity (CC50).
In the case of `Cc1noc(N)c1-c1nc2c(NCCO)ncnc2o1` [Compound 3h, 2-(5-Amino-3-methylisoxazol-4-yl)-7-N-(2-hydroxyethyl)aminooxazolo[5,4-d]pyrimidine], the melting point was 213 to 214 °C (dec.). Further, the CC50 in data set [1] worked out at 146 ± 11.1 µM. The “CC50 ± SD” value in [2] is on record as “Non-toxic”. Also, the “CC50 ± SD” value in data set [4] (MCF7, MTT, tested 1–500 µM) is “no cytotoxic activity”. Also, the “CC50 ± SD” value in data set [5] is given as “lack cytotoxic activity”.
For `Cc1noc(N)c1-c1nc2c(NCCCO)ncnc2o1` [Compound 3i, 2-(5-Amino-3-methylisoxazol-4-yl)-7-N-(3-hydroxypropyl)aminooxazolo[5,4-d]pyrimidine], the melting point was 225 to 226 °C (dec.). This compound showed a CC50 in data set [1] of 171 ± 22.8 µM. In addition, in data set [2], the “CC50 ± SD” value is “Non-toxic”. For the same compound, in data set [4], the “SI (selectivity index)” value is listed as >>1. The same compound yielded a CC50 in data set [4] (MCF7, MTT, tested 1–500 µM) of 251 ± 22.1 µM. For the same compound, in [5], the “CC50 ± SD” value is “lack cytotoxic activity”.
As to `Cc1noc(N)c1-c1nc2c(NCCN3CCOCC3)ncnc2o1` [Compound 3j, 2-(5-Amino-3-methylisoxazol-4-yl)-7-N-[2-(morpholin-4-yl)ethyl]aminooxazolo[5,4-d]pyrimidine], the CC50 in [1] worked out at 52.9 ± 9.51 µM; in data set [4] (MCF7, MTT, tested 1–500 µM), 197 ± 13.1 µM; in data set [5], 99.9 ± 10.9 µM. Also, in data set [2], the “CC50 ± SD” value is given as “no toxicity at all; also recorded: Non-toxic”. Moreover, the “SI (selectivity index)” value in data set [4] and in [5] was >>1 each time. Further, the apoptosis mean in data set [9] (1 μM) is reported as 5.45; in data set [9] (2 μM), 8.18; in data set [9] (5 μM), 8.28; in data set [9] (10 μM), 1.34. For the same compound, the late apoptosis mean came out at 29.25 in data set [9] (1 μM), 26.44 in [9] (2 μM), 30.59 in data set [9] (5 μM) and 13.55 in data set [9] (10 μM). In addition, the necrosis mean is 8.01 in data set [9] (1 μM), 3.92 in [9] (2 μM), 3.45 in [9] (5 μM) and 32.35 in [9] (10 μM). Besides, the “percent live (viable) cells” value in data set [9] (1 μM) is on record as 57.30; in data set [9] (2 μM), 61.47; in data set [9] (5 μM), 57.69; in data set [9] (10 μM) it was 52.76.
Take `Cc1ccc(Nc2nccc(N(C)c3ccc4c(C)n(C)nc4c3)n2)cc1S(N)(=O)=O` [Pazopanib]: the IC50 is 4 to 6 µM in the data set on A549 (ref 75, read-out: IC50 (converted)); 6.29 µM in the data set with MCF7; over 5 µM with HT29 (ref 77).
Regarding `CNC(=O)c1cc(Oc2ccc(NC(=O)Nc3ccc(Cl)c(C(F)(F)F)c3)c(F)c2)ccn1` [Regorafenib], the results for the IC50 with LoVo and with HT29 (ref 66) were 2 µM and 2.75 ± 0.18 µM, respectively.
On to `CNC(=O)c1cc(Oc2ccc(NC(=O)Nc3ccc(Cl)c(C(F)(F)F)c3)cc2)ccn1` [Sorafenib], for which the IC50 is 5.62 ± 2.13 µM with A549 (ref 80, read-out: IC50 (converted)); 31 µM with LoVo; 17.3 ± 3.8 µM with HT29 (ref 80).
As for `CCN(CC)CCNC(=O)c1c(C)[nH]c(/C=C2\C(=O)Nc3ccc(F)cc32)c1C` [Sunitinib], the IC50 with A549 (ref 78, read-out: IC50 (converted)) is 6.98 µM; with MCF7 it was 7.3 µM; in the data set on LoVo it was 4.18 ± 0.27 µM; with HT29 (ref 78), 4.89 µM; in the data set on HT29 (ref 79), 2.25 µM.
Regarding `COc1cc2nccc(Oc3ccc(NC(=O)Nc4cc(C)on4)c(Cl)c3)c2cc1OC` [Tivozanib], the IC50 is 0.19 ± 0.04 µM with A549 (ref 64, read-out: IC50 (converted)) and 0.25 ± 0.03 µM in the data set with MCF7.
Turning to `COc1cc2c(Nc3ccc(Br)cc3F)ncnc2cc1OCC1CCN(C)CC1` [Vandetanib], the IC50 in the data set on A549 (ref 72, read-out: IC50 (converted)) was 2.7 ± 0.5 µM; in the data set on MCF7, 12.2 ± 0.28 µM; with LoVo, 3.5 ± 0.9 µM; in the data set with HT29 (ref 74) it was 10 ± 0.4 µM.
Take `COc1ccc(CCN(C)CCCC(C#N)(c2ccc(OC)c(OC)c2)C(C)C)cc1OC` (centres unmarked) [verapamil]: the “intracellular fluorescence intensity of Rh-123, increase” value is given as 1.77 fold with HT29 cells (HT29, treatment 48 h) and 1.9 fold with HT29 cells (HT29, treatment 72 h).
